# Results from article PMC10096175, “An In Vitro Antimicrobial, Anticancer and Antioxidant Activity of N–[(2–Arylmethylthio)phenylsulfonyl]cinnamamide Derivatives” (Molecules, 2023).
# Like-named read-outs stand apart in the source and are kept apart here.
# How the values were obtained:
# [1] = tested on: B. subtilis ATCC 6633; test: MIC determination, reference strain (microdilution); type: cell-based; details: Bacillus subtilis, ATCC6633; B. subtilis ATCC 6633; Co-trimoxazole as sulfamethoxazole/trimethoprim; read-out: MIC
# [2] = tested on: S. epidermidis ATCC 14990; test: as above; type: cell-based; details: Staphylococcus epidermidis, ATCC14990; S. epidermidis ATCC 14990; Co-trimoxazole as sulfamethoxazole/trimethoprim; read-out: MIC
# [3] = tested on: HEK-293 cells; test: MTT assay, noncancerous cells; type: cell-based; details: Homo sapiens, HEK293; HEK-293; MTT, 24 h treatment; read-out: IC50
# [4] = tested on: SKOV-3 cells; test: MTT assay; type: cell-based, human; details: for IC50: Homo sapiens, SK-OV-3, SKOV-3, MTT, 24 h treatment, read-out: IC50; for Selectivity index (SI): IC50 HEK-293 / IC50 SKOV-3
# [5] = DPPH assay; details: DPPH radical scavenging; 40 min, room temperature
# Protocol: The DPPH assay was performed spectrophotometrically. The amount of 30 µL of different concentrations of samples, dissolved in methanol/DMSO (9/1 v/v), was mixed with 170 µL of 0.06 mM DPPH methanolic solution and completed with methanol to a final volume of 300 µL. DPPH methanolic solution with methanol/DMSO (9/1 v/v) was used as a control. After 40 min of incubation at room temperature in the dark, the absorbance was analyzed at λ = 510 nm by a 96-well microplate reader (Epoch, BioTek System, Santa Clara, CA, USA). Ascorbic acid was used as a standard.
# DPPH inhibition was calculated by the following equation:DPPH Inhibition (%) = [Acontrol − Asample)/Acontrol] × 100%
# (§1) IC50 values of the samples were calculated using program GraFit v. 7.0 (Erithacus Software). The analysis was performed three times, with tree replications in each (n = 9). Statistical analysis was performed with one-way ANOVA with Tuckey’s post-hoc test.
# [6] = tested on: E. coli ATCC 8739; test: MIC determination, reference strain (microdilution); type: cell-based; details: Escherichia coli, ATCC8739; E. coli ATCC 8739; Co-trimoxazole as sulfamethoxazole/trimethoprim; read-out: MIC
# [7] = tested on: C. diphtheriae; test: as above; type: cell-based; details: Corynebacterium diphtheriae; C. diphtheriae; Co-trimoxazole as sulfamethoxazole/trimethoprim; read-out: MIC
# [8] = tested on: S. aureus ATCC 6538; test: as above; type: cell-based; details: Staphylococcus aureus, ATCC6538; S. aureus ATCC 6538; ± SD; Co-trimoxazole as sulfamethoxazole/trimethoprim; read-out: MIC
# [9] = tested on: E. hirae ATCC 10541; test: as above; type: cell-based; details: Enterococcus hirae, ATCC10541; E. hirae ATCC 10541; Co-trimoxazole as sulfamethoxazole/trimethoprim; read-out: MIC
# [10] = tested on: Staphylococcus sp. and Enterococcus sp.; test: MIC, summary statements on reference Gram-positive cocci; type: cell-based; details: Staphylococcus and Enterococcus species, reference Gram-positive cocci (range over strains)
# Protocol: Sterile sheep blood defibrinated (GrasoBiotech). Co-trimoxazole (composition sulfamethoxazole 400 mg/trimethoprim 80 mg; WZF Polfa Poland). Ketoconazole (WZF Polfa Poland). Bacteria: Enterococcus hirae ATCC 10541 and Enterococcus faecalis ATCC 51299, Staphylococcus epidermidis ATCC 14990, Staphylococcus aureus ATCC 6538, clinical strains Staphylococcus aureus MRSA, clinical strains Staphylococcus sp. (MRCNS), clinical strain Staphylococcus epidermidis MRSE, clinical strain Enterococcus sp., Corynebacterium diphtheriae ZMF, Bacillus subtilis ATCC 6633, Escherichia coli ATCC 8739, Candida albicans ATCC 10231. Brain-heart infusion broth (BHI, Becton Dickinson) for Enterococcus hirae ATCC 10541 and Enterococcus faecalis ATCC 51299, BHI supplement with 10% bovine serum for Bacillus subtilis, Corynebacterium diphtheriae ZMF, Staphylococcus epidermidis ATCC 14990, Staphylococcus aureus ATCC 6538, clinical strains Staphylococcus aureus MRSA, clinical strains Staphylococcus sp. (CNS), clinical strain Staphylococcus epidermidis MRSE grew in Mueller-Hinton broth (MH cation-adjusted, Becton Dickinson) in an aerobic atmosphere at 37 °C for 48 h, in an aerobic atmosphere at 37 °C for 72 h. Candida albicans grew in Sabourauda broth (Sb, Becton Dickinson), in an aerobic atmosphere at 37 °C for 72 h. After determination of the bacterial viability, BHI blood agar plates, MH agar plates, and Sb agar plates were used.
# The MIC determination for the reference and clinical strains was performed based on the methodology described by Kula et al.. The dry test samples were dissolved in dimethyl sulfoxide (DMSO) and diluted in water, resulting in a finale concentration of about 500 µg/mL. These solutions were diluted and added to the first well of each microtiter line. Dilution in geometric progression was done by transferring the mixture/dilution (100 μL) from the first to the twelfth well. An aliquot (100 μL) was discarded from the twelfth well. The final concentration of the samples used in the antimicrobial activity assay ranged from 125 to 0.006 µg/mL. Co-trimoxazole (for bacteria), with the composition sulfamethoxazole 400 mg/trimethoprim 80 mg was used as a reference compound in the concentration range of 20 000/4000 to 1/0.2 µg/mL. Ketoconazole (for fungi) was used as a reference compound in the concentration range of 125 to 0.006 µg/mL. Tests were incubated in adequate conditions described by Kula et al.. Diluent concentration had no effect on the activity of the tested compounds. All experiments were carried out three times.
# [11] = tested on: C. albicans ATCC 10231; test: MIC determination, reference fungal strain (microdilution); type: cell-based; details: Candida albicans, ATCC10231; C. albicans ATCC 10231; read-out: MIC
# [12] = tested on: MCF-7 cells; test: MTT assay; type: cell-based, human; details: for IC50: Homo sapiens, MCF7, MCF-7, MTT, 24 h treatment, read-out: IC50; for Selectivity index (SI): IC50 HEK-293 / IC50 MCF-7
# [13] = tested on: HeLa cells; test: MTT assay; type: cell-based, human; details: for IC50: HeLa, MTT, 24 h treatment; for Selectivity index (SI): IC50 HEK-293 / IC50 HeLa
# [14] = in vitro; details: sheep, defibrinated sheep blood diluted 1:9 v/v with PBS, pH 7
# [15] = tested on: E. faecalis ATCC 51299; test: MIC determination, reference strain (microdilution); type: cell-based; details: Enterococcus faecalis, ATCC51299; E. faecalis ATCC 51299; Co-trimoxazole as sulfamethoxazole/trimethoprim; read-out: MIC
# [16] = ABTS assay; details: ABTS radical scavenging; 10 min, 30 °C
# Protocol: The ABTS assay was performed spectrophotometrically. […] ABTS solution with methanol/DMSO (9/1 v/v) was used as a control. After 10 min of incubation at 30 °C in the dark, the absorbance was analyzed at λ = 750 nm by a 96-well microplate reader (Epoch, BioTek System, Santa Clara, CA, USA). Ascorbic acid was used as a standard.
# ABTS inhibition was calculated by the following equation:ABTS Inhibition (%) = [Acontrol − Asample)/Acontrol] × 100%
# as §1
# [17] = tested on: clinical strains of Enterococcus sp.; test: MIC on clinical Enterococcus strains; type: cell-based; details: Enterococcus sp. 3937152; read-out: MIC
# [18] = tested on: cancer cells (HeLa, SKOV-3, MCF-7); test: MTT assay, summary statements on the cancer cells; type: cell-based; details: Homo sapiens, cell line not specified
# [19] = Homo sapiens, 24 h, read-out: IC50
Compound,MIC [1],MIC [2],IC50 [3],IC50 [4],Selectivity index (SI) [4],IC50 DPPH [5],MIC [6],MIC [7],MIC [8],MIC [9],MIC [10],MIC [11],IC50 [12],Selectivity index (SI) [12],"IC50 [13, 19]",Selectivity index (SI) [13],"hemolysis at 24 h, 31.25 µg/mL [14]",MIC [15],IC50 ABTS [16],IC50 ([18]; MTT),other results
"Cc1cc(S(=O)(=O)NC(=O)/C=C/c2ccc(Br)cc2)c(SCc2cccc3ccccc23)cc1Cl [Compound 16b, (E)–3–(4–Bromophenyl)–N–{[4–chloro–5–methyl–2–(naphthalen–1–yl)methylthio]phenylsulfonyl}acrylamide]",62.5 ± 0.29 µg/mL,1 ± 0.29 µg/mL,15.7 ± 1.62 µg/mL,16.6 ± 0.69 µg/mL,0.9,945.37 ± 0.14 µg/mL,> 125 µg/mL,62.5 ± 0.29 µg/mL,1 ± 0.29 µg/mL,2 ± 0.58 µg/mL,1 to 2 µg/mL,> 125 µg/mL,30.7 ± 2.49 µg/mL,0.5,13.47 ± 0.13 µg/mL,1.2,12 to 20%,2 ± 0.58 µg/mL,697.68 ± 1.26 µg/mL,,
"Cc1cc(S(=O)(=O)NC(=O)/C=C/c2ccc([N+](=O)[O-])cc2)c(SCc2cc3c(cc2Cl)OCO3)cc1Cl [Compound 17d, (E)–N–{4–Chloro–2–[(6–chlorobenzo[d][1,3]dioxol–5–yl)methylthio]–5–methylphenylsulfonyl}–3–(4–nitrophenyl)acrylamide]",125 ± 0.29 µg/mL,2 ± 0.76 µg/mL,15.4 ± 0.69 µg/mL,15.3 ± 0.16 µg/mL,1.0,574.41 ± 1.34 µg/mL,> 125 µg/mL,62.5 ± 0.29 µg/mL,4 ± 0.16 µg/mL,8 ± 0.15 µg/mL,,> 125 µg/mL,16.3 ± 0.27 µg/mL,0.9,< 10 µg/mL,1.5,12 to 20%,8 ± 0.15 µg/mL,419.18 ± 2.72 µg/mL,< 10 µg/mL,MIC [17]: > 125 µg/mL; IC50 ([18]; µg/mL bound converted): ≤ 20 µM; IC50 [13]: 9.99 ± 0.08 µg/mL
"Cc1cc(S(=O)(=O)NC(=O)/C=C/c2ccc(F)cc2)c(SCc2cccc3ccccc23)cc1Cl [Compound 16c, (E)–N–{4–Chloro–5–methyl–2–[(naphthalen–1–yl)methylthio]phenylsulfonyl}–3–(4–fluorophenyl)acrylamide]",62.5 ± 0.29 µg/mL,2 ± 0.58 µg/mL,7.67 ± 0.21 µg/mL,9.28 ± 1.02 µg/mL,0.8,620.47 ± 0.67 µg/mL,> 125 µg/mL,> 125 µg/mL,1 ± 0.29 µg/mL,2 ± 0.58 µg/mL,1 to 2 µg/mL,> 125 µg/mL,11.2 ± 0.08 µg/mL,0.7,11.2 ± 0.2 µg/mL,0.7,,2 ± 0.58 µg/mL,622.23 ± 2.25 µg/mL,< 10 µg/mL,IC50 ([18]; µg/mL bound converted): ≤ 20 µM
"Cc1cc(S(=O)(=O)NC(=O)/C=C/c2ccc([N+](=O)[O-])cc2)c(SCc2cccc3ccccc23)cc1Cl [Compound 16f, (E)–N–{4–Chloro–5–methyl–2–[(naphthalen–1–yl)methylthio]phenylsulfonyl}–3–(4–nitrophenyl)acrylamide]",62.5 ± 0.29 µg/mL,2 ± 0.58 µg/mL,94.5 ± 4.7 µg/mL,70.53 ± 0.21 µg/mL,1.3,310.50 ± 0.73 µg/mL,> 125 µg/mL,62.5 ± 0.29 µg/mL,1 ± 0.29 µg/mL,4 ± 0.15 µg/mL,,> 125 µg/mL,93.5 ± 4.71 µg/mL,1.0,62.8 ± 3.75 µg/mL,1.5,12 to 20%,4 ± 0.15 µg/mL,597.53 ± 1.3 µg/mL,> 60 µg/mL,
